From patent US7288659B2, “Acylaminothiazole derivatives, their preparation and therapeutic use” (Sanofi-Aventis, priority 2001, dated 2007) come the findings set out here.

SMILES strings stand for the structures. Structures can show the parent of a compound that is named as a salt.

`CCC[C@H](NC(=O)C(=O)c1cc(F)cc(F)c1)C(=O)Nc1ncc(-c2ccccc2COC2CCCCC2)s1` [compound 60, (2S)-N-(5-{2-[(cyclohexyloxy)methyl]phenyl}-1,3-thiazol-2-yl)-2-{[2-(3,5-difluorophenyl)-2-oxoacetyl]-amino}pentanamide] gave a melting point of 77 °C. Next, `C[C@H](NC(=O)Cc1cc(F)cc(F)c1)C(=O)Nc1ncc(-c2ccc(COCC3CCCCC3)cc2)s1` [compound 46, (2S)-N-(5-{4-[(cyclohexylmethoxy)methyl]phenyl}-1,3-thiazol-2-yl)-2-{[2-(3,5-difluorophenyl)acetyl]-amino}propanamide]: 166 °C; `COc1cccc(CC(=O)N[C@@H](C)C(=O)Nc2ncc(-c3ccccc3COC3CCCCC3)s2)c1` [compound 34, (2S)-N-(5-{2-[(cyclohexyloxy)methyl]phenyl}-1,3-thiazol-2-yl)-2-{[2-(3-methoxyphenyl)acetyl]amino}-propanamide]: 94 °C. `C[C@H](NC(=O)Cc1ccc(F)cc1)C(=O)Nc1ncc(-c2ccccc2COC2CCCCC2)s1` [compound 20, (2S)-N-(5-{2-[(cyclohexyloxy)methyl]phenyl}-1,3-thiazol-2-yl)-2-{[2-(4-fluorophenyl)acetyl]amino}-propanamide] had a melting point of 70 °C. For the molecule `CCCC[C@H](NC(=O)Cc1cc(F)cc(F)c1)C(=O)Nc1ncc(-c2ccccc2COC2CCCCC2)s1` [compound 47, (2S)-N-(5-{2-[(cyclohexyloxy)methyl]phenyl}-1,3-thiazol-2-yl)-2-{[2-(3,5-difluorophenyl)acetyl]amino}-hexanamide], the melting point is 77.6 °C. With `Cc1nc(NC(=O)C(C)NC(=O)Cc2cc(F)cc(F)c2)sc1-c1ccccc1COC1CCCC1` (stereo not drawn) [compound 14, N-(5-{2-[(cyclopentyloxy)methyl]phenyl}-4-methyl-1,3-thiazol-2-yl)-2-{[2-(3,5-difluorophenyl)acetyl]-amino}propanamide], the melting point is 104 °C. With `C[C@@H](NC(=O)Cc1cc(F)cc(F)c1)C(=O)Nc1ncc(-c2ccccc2COC2CCCCC2)s1` [compound 25, (2R)-N-(5-{2-[(cyclohexyloxy)methyl]phenyl}-1,3-thiazol-2-yl)-2-{[2-(3,5-difluorophenyl)acetyl]amino}-propanamide], the melting point is 95 °C. The value for `COCc1ccccc1-c1cnc(NC(=O)C(C)NC(=O)Cc2cc(F)cc(F)c2)s1` (stereo not drawn) [compound 13, 2-{[2-(3,5-difluorophenyl)acetyl]amino}-N-{5-[2-(methoxymethyl)phenyl]-1,3-thiazol-2-yl}propanamide] was 194 °C; that for `CCC[C@H](NC(=O)Cc1cc(F)cc(F)c1)C(=O)Nc1ncc(-c2ccc(OC)cc2COC(C)C)s1` [Compound No. 75, (2S)-2-{[2-(3,5-difluorophenyl)acetyl]amino}-N-(5-{2-(isopropoxymethyl)-4-methoxyphenyl}-1,3-thiazol-2-yl)pentanamide] was 73.9 °C; that for `Cc1nc(NC(=O)C(C)NC(=O)Cc2cc(F)cc(F)c2)sc1-c1ccccc1COC1CCCCC1` (stereo not drawn) [compound 12, N-(5-{2-[(cyclohexyloxy)methyl]phenyl}-4-methyl-1,3-thiazol-2-yl)-2-{[2-(3,5-difluorophenyl)acetyl]-amino}propanamide] was 152 °C. Molecule `CCC[C@H](NC(=O)Cc1cc(F)cc(F)c1)C(=O)Nc1ncc(-c2ccccc2COC(C)C)s1` [compound 72, (2S)-2-{[2-(3,5-difluorophenyl)acetyl]amino}-N-{5-[2-(isopropoxymethyl)phenyl]-1,3-thiazol-2-yl}pentanamide] showed a melting point of 74 °C. Regarding `CC(C)OCc1ccccc1-c1cnc(NC(=O)[C@H](C)NC(=O)Cc2cc(F)cc(F)c2)s1` [compound 22, (2S)-2-{[2-(3,5-difluorophenyl)acetyl]amino}-N-{5-[2-(isopropoxymethyl)phenyl]-1,3-thiazol-2-yl}propanamide], the melting point was 136 °C. `CCC[C@H](NC(=O)[C@H](O)c1cc(F)cc(F)c1)C(=O)Nc1nc(C)c(-c2ccccc2COC2CCCCC2)s1` [compound 53, (2S)-N-(5-{2-[(cyclohexyloxy)methyl]phenyl}-4-methyl-1,3-thiazol-2-yl)-2-{[(2R)-2-(3,5-difluorophenyl)-2-hydroxyacetyl]amino}pentanamide] registered a melting point of 99.4 °C.

On to `CC[C@H](NC(=O)Cc1cc(F)cc(F)c1)C(=O)Nc1ncc(-c2ccccc2COC2CCCCC2)s1` [compound 32, (2S)-N-(5-{2-[(cyclohexyloxy)methyl]phenyl}-1,3-thiazol-2-yl)-2-{[2-(3,5-difluorophenyl)acetyl]amino}-butanamide], for which the melting point is 68 °C. In turn, `C[C@H](NC(=O)Cc1cccc(OC(F)(F)F)c1)C(=O)Nc1ncc(-c2ccccc2COC2CCCCC2)s1` [compound 48, (2S)-N-(5-{2-[(cyclohexyloxy)methyl]phenyl}-1,3-thiazol-2-yl)-2-{[2-(3-trifluoromethoxyphenyl)acetyl]-amino}propanamide] yielded a melting point of 60 °C. `CC(NC(=O)Cc1ccccc1)C(=O)Nc1ncc(-c2ccccc2COC2CCCCC2)s1` (stereo not drawn) [compound 11, N-(5-{2-[(cyclohexyloxy)methyl]phenyl}-1,3-thiazol-2-yl}-2-[(2-phenylacetyl)amino]propanamide] gave a melting point of 162 °C. `CC(NC(=O)Cc1cc(F)cc(F)c1)C(=O)Nc1ncc(-c2ccccc2COC2CCCCC2)s1` (stereo not drawn) [Compound No. 2, N-(5-{2-[(cyclohexyloxy)methyl]phenyl}-1,3-thiazol-2-yl)-2-{[2-(3,5-difluorophenyl)acetyl]amino}propanamide]: the melting point worked out at 126 °C. `CC(C)C(NC(=O)Cc1cc(F)cc(F)c1)C(=O)Nc1ncc(-c2ccccc2COC2CCCCC2)s1` (stereo not drawn) [compound 10, N-(5-{2-[(cyclohexyloxy)methyl]phenyl}-1,3-thiazol-2-yl}-2-{[2-(3,5-difluorophenyl)acetyl]amino}-3-methylbutanamide] gave a melting point of 181 °C. Regarding `C[C@H](NC(=O)[C@H](F)c1cc(F)cc(F)c1)C(=O)Nc1ncc(-c2ccccc2COC2CCCCC2)s1` (racemic) [Compound No. 65, (2S)-N-(5-{2-[(cyclohexyloxy)methyl]phenyl}-1,3-thiazol-2-yl)-2-{[(2R)-2-(3,5-difluorophenyl)-2-fluoroacetyl]amino}propanamide], the melting point is 78 °C. Next, `CC(C)(C)[C@H](NC(=O)Cc1cc(F)cc(F)c1)C(=O)Nc1ncc(-c2ccccc2COC2CCCCC2)s1` [compound 37, (2S)-N-(5-{2-[(cyclohexyloxy)methyl]phenyl}-1,3-thiazol-2-yl)-2-{[2-(3,5-difluorophenyl)acetyl]amino}-3,3-dimethylbutanamide]: 73 °C; `C[C@H](NC(=O)[C@@H](O)c1cc(F)cc(F)c1)C(=O)Nc1ncc(-c2ccccc2COC2CCCCC2)s1` [Compound No. 51, (2S)-N-(5-{2-[(cyclohexyloxy)methyl]phenyl}-1,3-thiazol-2-yl)-2-{[(2S)-2-(3,5-difluorophenyl)-2-hydroxyacetyl]amino}propanamide]: 159 °C. Next, `O=C(Cc1cc(F)cc(F)c1)NCC(=O)Nc1ncc(-c2ccccc2COC2CCCCC2)s1` [compound 15, N-{2-[(5-{2-[(cyclohexyloxy)methyl]phenyl}-1,3-thiazol-2-yl)amino]-2-oxoethyl}-2-(3,5-difluorophenyl)-acetamide]: 172 °C; `CCC[C@H](NC(=O)[C@@H](O)c1cc(F)cc(F)c1)C(=O)Nc1nc(C)c(-c2ccccc2COC2CCCCC2)s1` [compound 57, (2S)-N-(5-{2-[(cyclohexyloxy)methyl]phenyl}-4-methyl-1,3-thiazol-2-yl)-2-{[(2S)-2-(3,5-difluorophenyl)-2-hydroxyacetyl]amino}pentanamide]: 115 °C. `COc1ccc(CC(=O)N[C@@H](C)C(=O)Nc2ncc(-c3ccccc3COC3CCCCC3)s2)cc1` [compound 33, (2S)-N-(5-{2-[(cyclohexyloxy)methyl]phenyl}-1,3-thiazol-2-yl)-2-{[2-(4-methoxyphenyl)acetyl]amino}-propanamide]: the melting point was determined as 74 °C. The value for `C[C@H](NC(=O)Cc1cccc(F)c1)C(=O)Nc1ncc(-c2ccccc2COC2CCCCC2)s1` [compound 19, (2S)-N-(5-{2-[(cyclohexyloxy)methyl]phenyl}-1,3-thiazol-2-yl)-2-{[2-(3-fluorophenyl)acetyl]amino}-propanamide] was 98 °C.

Regarding `CC(C)[C@H](NC(=O)Cc1cc(F)cc(F)c1)C(=O)Nc1ncc(-c2ccccc2COC2CCCCC2)s1` [compound 31, (2S)-N-(5-{2-[(cyclohexyloxy)methyl]phenyl}-1,3-thiazol-2-yl)-2-{[2-(3,5-difluorophenyl)acetyl]amino}-3-methylbutanamide], the melting point turned out to be 87 °C. The value for `CCC(NC(=O)Cc1cc(F)cc(F)c1)C(=O)Nc1ncc(-c2ccccc2COC2CCCCC2)s1` (stereo not drawn) [compound 9, N-(5-{2-[(cyclohexyloxy)methyl]phenyl}-1,3-thiazol-2-yl}-2-{[2-(3,5-difluorophenyl)acetyl]amino}butanamide] was 179 °C; that for `CCC[C@H](NC(=O)Cc1cc(F)cc(F)c1)C(=O)Nc1nc(C)c(-c2ccccc2COC2CCN(C)CC2)s1` (as salt: phosphate) [compound 68, (2S)-N-(5-{2-[(N-methylpiperidin-4-yloxy)methyl]-phenyl}-4-methyl-1,3-thiazol-2-yl)-2-{[2-(3,5-difluorophenyl)acetyl]amino}pentanamide] was 186 °C; that for `C[C@H](NC(=O)Cc1cc(F)cc(F)c1)C(=O)Nc1ncc(-c2ccccc2COc2ccccc2)s1` [compound 21, (2S)-2-{[2-(3,5-difluorophenyl)acetyl]amino}-N-{5-[2-(phenoxymethyl)phenyl]-1,3-thiazol-2-yl}propanamide] was 78 °C. The value for `CCC[C@H](NC(=O)Cc1cc(F)cc(F)c1)C(=O)Nc1nc(CC)c(-c2ccccc2COC2CCCCC2)s1` [compound 59, (2S)-N-(5-{2-[(cyclohexyloxy)methyl]phenyl}-4-ethyl-1,3-thiazol-2-yl)-2-{[2-(3,5-difluorophenyl)-acetyl]amino}pentanamide] was 80 °C.
